The nature of series [1]: log P by HPLC on reversed-phase (C18) columns, OECD Guideline 117. Type of series: physicochemical. The note with it: reversed-phase (C18) HPLC column. The protocol:
The log P values were determined in accordance with OECD Guideline 117 (EC Directive 92/69/EEC) by HPLC (high-performance liquid chromatography) using reversed-phase (RP) columns (C18), by the following methods: [a] The LC-MS determination in the acidic range is carried out at pH 2.7 with 0.1% aqueous formic acid and acetonitrile (contains 0.1% formic acid) as eluents; linear gradient from 10% acetonitrile to 95% acetonitrile. [b] LC-MS determination in the neutral range is effected at pH 7.8 with 0.001 molar aqueous ammonium hydrogencarbonate solution and acetonitrile as eluents; linear gradient from 10% acetonitrile to 95% acetonitrile. Calibration is carried out using unbranched alkan-2-ones (having 3 to 16 carbon atoms) with known log P values (log P values determined on the basis of the retention times by linear interpolation between two successive alkanones).

The subject of series [2] is Myzus persicae. Nature of the series: Myzus persicae spray test (Chinese cabbage leaf discs). The note with it: foliar, 144 h, application rate 500 g/ha, after 6 days, 100% = all aphids killed, read-out: efficacy. The format is in vivo, green peach aphid (Myzus persicae). The protocol: Myzus persicae—Spray Test • Solvent: 78 parts by weight of acetone • 1.5 parts by weight of dimethylformamide • Emulsifier: alkylaryl polyglycol ether To produce a suitable preparation of active compound, 1 part by weight of active compound is dissolved using the specified parts by weight of solvent and made up with water containing an emulsifier concentration of 1000 ppm until the desired concentration is attained. To produce further test concentrations, the formulation is diluted with emulsifier-containing water. Discs of Chinese cabbage leaves (Brassica pekinensis) infested by all stages of the green peach aphid (Myzus persicae) are sprayed with an active compound formulation of the desired concentration. After 6 days, the efficacy in % is determined. 100% means that all the aphids have been killed; 0% means that no aphids have been killed.

The subject of series [3] is Myzus persicae. As to the kind of experiment: Myzus persicae spray test (bell pepper plants). The format is in vivo, green peach aphid (Myzus persicae). The note with it: after 6 days. The protocol: Myzus persicae—Spray Test • Solvent: 7 parts by weight of dimethylformamide • Emulsifier: alkylaryl polyglycol ether To produce a suitable preparation of active compound, 1 part by weight of active compound is dissolved using the specified parts by weight of solvent and made up with water containing an emulsifier concentration of 1000 ppm until the desired concentration is attained. To produce further test concentrations, the formulation is diluted with emulsifier-containing water. If the addition of ammonium salts or/and penetrants is required, these are each added in a concentration of 1000 ppm to the formulation solution. Bell pepper plants (Capsicum annuum) severely infested with the green peach aphid (Myzus persicae) are treated by spraying with the active compound formulation in the desired concentration. After 6 days, the kill in % is determined. 100% means that all of the aphids have been killed; 0% means that none of the aphids have been killed.

The test system of a further series is Aphis gossypii. Nature of the series: Aphis gossypii spray test (cotton plants). Type of series: in vivo, cotton aphid (Aphis gossypii). The note with it: application rate 4 ppm, after 6 days. On the procedure:
Aphis gossypii—Spray Test • Solvent: 7 parts by weight of dimethylformamide • Emulsifier: alkylaryl polyglycol ether To produce a suitable preparation of active compound, 1 part by weight of active compound is dissolved using the specified parts by weight of solvent and made up with water containing an emulsifier concentration of 1000 ppm until the desired concentration is attained. To produce further test concentrations, the formulation is diluted with emulsifier-containing water. If the addition of ammonium salts or/and penetrants is required, these are each added in a concentration of 1000 ppm to the formulation solution. Cotton plants (Gossypium hirsutum) which are heavily infested by the cotton aphid (Aphis gossypii) are sprayed with an active compound formulation of the desired concentration. After 6 days, the kill in % is determined. 100% means that all the aphids have been killed; 0% means that no aphids have been killed.

Another series deals with Tetranychus urticae. As to the kind of experiment: Tetranychus urticae spray test, OP-resistant (bean leaf discs). The format is in vivo, greenhouse red spider mite (Tetranychus urticae). The following applies: application rate 500 g/ha, after 6 days, 100% = all spider mites killed. On the procedure:
Tetranychus urticae—Spray Test, OP-Resistant • Solvent: 78.0 parts by weight of acetone • 1.5 parts by weight of dimethylformamide • Emulsifier: alkylaryl polyglycol ether
To produce a suitable preparation of active compound, 1 part by weight of active compound is dissolved using the specified parts by weight of solvent and made up with water containing an emulsifier concentration of 1000 ppm until the desired concentration is attained. To produce further test concentrations, the formulation is diluted with emulsifier-containing water.
Discs of bean leaves (Phaseolus vulgaris) infested with all stages of the greenhouse red spider mite (Tetranychus urticae) are sprayed with an active compound formulation of the desired concentration.
After 6 days, the efficacy in % is determined. 100% means that all the spider mites have been killed; 0% means that no spider mites have been killed.

[4] abbreviates: acidic range, pH 2.7, 0.1% aqueous formic acid / acetonitrile, read-out: logP[a].
Setting [5] is: neutral range, pH 7.8, 0.001 molar aqueous ammonium hydrogencarbonate / acetonitrile, read-out: logP[b].

The source of these data is US20170265474A1, “BICYCLIC COMPOUNDS AS PEST CONTROL AGENTS” (BAYER CROPSCIENCE AKTIENGESELLSCHAFT, priority 2014, published 2017).

Like-named read-outs stand apart in the source and are kept apart here.

Take `Cc1cc(F)c(-c2ccc3nc(-c4cccnc4)sc3n2)cc1SCC(F)(F)F` [Example 1, 5-[2-Fluoro-4-methyl-5-(2,2,2-trifluoroethylsulfanyl)phenyl]-2-(3-pyridyl)thiazol [5,4-b]pyridine]: the chromatographic logP in series [1] (setting [4]) was 4.81; in series [1] (setting [5]), 4.75. Moreover, in the series on Myzus persicae [2], the pest or weed control at 500 g/ha was found to be 100%. The “efficacy (kill)” value with Myzus persicae [3] (application rate 4 ppm) is listed as 100%.

Consider `Cc1ccc(-c2ccc3nc(-c4cccnc4)sc3n2)cc1SCC(F)(F)F` [Example 2, 5-[4-Methyl-3-(2,2,2-trifluoroethylsulfanyl)phenyl]-2-(3-pyridyl)thiazolo[5,4-b]pyridine], for which the chromatographic logP in series [1] (setting [4]) was determined as 4.67; in series [1] (setting [5]), 4.64. Also, the pest or weed control at 500 g/ha in the series on Myzus persicae [2] was found to be 90%. Also, in the series on Myzus persicae [3] (application rate 4 ppm), the “efficacy (kill)” value is listed as 100%.

Take `Cc1cc(F)c(-c2ccc3nc(-c4cccnc4)sc3n2)cc1[S+]([O-])CC(F)(F)F` (stereo not shown) [Example 3, 5-[2-Fluoro-4-methyl-5-(2,2,2-trifluoroethylsulfinyl)phenyl]-2-(3-pyridyl)thiazolo[5,4-b]pyridine]: the values for the chromatographic logP in series [1] (setting [4]) and in series [1] (setting [5]) were 3.02 and 3.09, respectively. In addition, the “efficacy (kill)” value in the series on Myzus persicae [3] (application rate 4 ppm) is on record as 97%.

Consider `Cc1ccc(-c2ccc3nc(-c4cccnc4)sc3n2)cc1[S+]([O-])CC(F)(F)F` (stereo not shown) [Example 4, 5-[4-Methyl-3-(2,2,2-trifluoroethylsulfinyl)phenyl]-2-(3-pyridyl)thiazolo[5,4-b]pyridine], for which the values for the chromatographic logP in series [1] (setting [4]) and in series [1] (setting [5]) were 2.99 and 2.98, respectively. Also, the pest or weed control at 500 g/ha in the series with Myzus persicae [2] was found to be 90%. The “efficacy (kill)” value with Myzus persicae [3] (application rate 4 ppm) is given as 95%.

Consider `c1cncc(-c2nc3ccc(N4CCCC4)nc3s2)c1` [Example 6, 2-(3-Pyridyl)-5-pyrrolidin-1-ylthiazolo[5,4-b]pyridine], for which the results for the chromatographic logP in series [1] (setting [4]) and in series [1] (setting [5]) were 2.53 and 2.97, respectively. For the same compound, in the series on Myzus persicae [3] (application rate 100 ppm), the “efficacy (kill)” value came out at 95%.

On to `c1cnc(-c2ccc3nc(-c4cccnc4)sc3n2)nc1` [Example 7, 2-(3-Pyridyl)-5-pyrimidin-2-ylthiazolo[5,4-b]pyridine], for which the chromatographic logP in series [1] (setting [4]) amounted to 1.43; in series [1] (setting [5]), 1.5. In the series with Aphis gossypii, the “efficacy (kill)” value is 80%.

As to `c1ccc(-c2ccc3nc(-c4cccnc4)sc3n2)nc1` [Example 8, 5-(2-Pyridyl)-2-(3-pyridyl)thiazolo[5,4-b]pyridine], the chromatographic logP in series [1] (setting [4]) worked out at 2.12; in series [1] (setting [5]) it was 2.68. The “efficacy (kill)” value in the series on Myzus persicae [3] (application rate 4 ppm) was determined as 80%.

Turning to `Cc1ccc(Nc2ccc3nc(-c4cccnc4)sc3n2)cc1SCC(F)(F)F` [Example 9, N-[4-Methyl-3-(2,2,2-trifluoroethylsulfanyl)phenyl]-2-(3-pyridyl)thiazolo[5,4-b]pyridine-5-amine], the chromatographic logP stood at 3.99 in series [1] (setting [4]) and 4.06 in series [1] (setting [5]). Also, the efficacy with Tetranychus urticae came to 90%.

Consider `FC(F)(F)c1ccc2nc(-c3cccnc3)sc2n1` [Example 10, 2-(3-Pyridyl)-5-(trifluoromethyl)thiazolo[5,4-b]pyridine], for which the chromatographic logP in series [1] (setting [4]) was determined as 2.65; in series [1] (setting [5]), 2.69. The efficacy in the series with Tetranychus urticae stood at 90%.

For the compound `c1cncc(-c2nc3ccc(N4CCOCC4)nc3s2)c1` [Example 11, 4-[2-(3-Pyridyl)thiazolo[5,4-b]pyridin-5-yl]morpholine], the chromatographic logP in series [1] (setting [4]) came to 2.1; in series [1] (setting [5]), 1.95. For the same compound, in the series with Myzus persicae [2], the pest or weed control at 500 g/ha came out at 90%.

For the compound `Cc1ccc(N(C)c2ccc3nc(-c4cccnc4)sc3n2)cc1SCC(F)(F)F` [Example 12, N-methyl-N-[4-methyl-3-(2,2,2-trifluoroethylsulfanyl)phenyl]-2-(3-pyridyl)thiazolo[5,4-b]pyridine-5-amine], the figures for the chromatographic logP in series [1] (setting [4]) and in series [1] (setting [5]) were 4.81 and 4.78, respectively. Further, the pest or weed control at 500 g/ha in the series on Myzus persicae [2] was 90%.

On to `FC(F)(F)c1cnn(-c2ccc3nc(-c4cccnc4)sc3n2)c1` [Example 13, 2-(3-Pyridyl)-5-[4-(trifluoromethyl)pyrazol-1-yl]thiazolo[5,4-b]pyridine], for which the chromatographic logP in series [1] (setting [4]) turned out to be 3.82; in series [1] (setting [5]), 3.72.

On to `CNc1ccc2nc(-c3cccnc3)sc2n1` [Example 15], for which, in series [1] (setting [4]), the chromatographic logP stood at 1.34.

With `CSCCC(=O)N(C)c1ccc2nc(-c3cccnc3)sc2n1` [Example 22], the chromatographic logP in series [1] (setting [4]) was found to be 1.98. In the series with Myzus persicae [2], the pest or weed control at 500 g/ha was 90%.

With `CN(C(=O)c1cccc([S+]([O-])C(F)(F)F)c1)c1ccc2nc(-c3cccnc3)sc2n1` (stereo not shown) [Example 29], in series [1] (setting [4]), the chromatographic logP stood at 2.23. Besides, the pest or weed control at 500 g/ha in the series with Myzus persicae [2] was found to be 100%.

Consider `CN(C(=O)CCS(C)(=O)=O)c1ccc2nc(-c3cccnc3)sc2n1` [Example 30, N-Methyl-3-(methylsulfonyl)-N-[2-(pyridin-3-yl)[1,3]thiazolo[5,4-b]pyridin-5-yl]propanamide], for which, in series [1] (setting [4]), the chromatographic logP was found to be 1.25. Also, the pest or weed control at 500 g/ha with Myzus persicae [2] worked out at 90%.

Take `CN(C(=O)c1cccc(S(=O)(=O)C(F)(F)F)c1)c1ccc2nc(-c3cccnc3)sc2n1` [Example 31]: the chromatographic logP in series [1] (setting [4]) stood at 1.54. In the series on Myzus persicae [2], the pest or weed control at 500 g/ha is 90%.

Turning to `CNC(=O)c1ccc2nc(-c3cccnc3)sc2n1` [Example 32], the chromatographic logP in series [1] (setting [4]) stood at 1.35.

For `CCN(C)C(=O)c1ccc2nc(-c3cccnc3)sc2n1` [Example 33], in series [1] (setting [4]), the chromatographic logP worked out at 1.53.

With `O=C(Nc1cccc(S(=O)(=O)C(F)(F)F)c1)c1ccc2nc(-c3cccnc3)sc2n1` [Example 34], the chromatographic logP in series [1] (setting [4]) is 2.1.

Regarding `CSCCNC(=O)c1ccc2nc(-c3cccnc3)sc2n1` [Example 35], the chromatographic logP in series [1] (setting [4]) was 2.03. In addition, the pest or weed control at 500 g/ha with Myzus persicae [2] stood at 90%.

As for `O=C(Nc1cccc([S+]([O-])C(F)(F)F)c1)c1ccc2nc(-c3cccnc3)sc2n1` (stereo not shown) [Example 36], the chromatographic logP in series [1] (setting [4]) came to 3.09.

As for `O=C(Nc1ccc2nc(-c3cccnc3)sc2n1)c1cccc([S+]([O-])C(F)(F)F)c1` (stereo not shown) [Example 37], in series [1] (setting [4]), the chromatographic logP came out at 2.61.

For the compound `CS(=O)(=O)CCC(=O)Nc1ccc2nc(-c3cccnc3)sc2n1` [Example 38], the chromatographic logP in series [1] (setting [4]) is 1.18.

Turning to `FC(F)(F)c1ccn(-c2ccc3nc(-c4cccnc4)sc3n2)n1` [Example 39], the chromatographic logP is 3.79 in series [1] (setting [4]) and 3.83 in series [1] (setting [5]).

Take `Clc1ccc2nc(-c3cccnc3)sc2n1` [Example 40]: the results for the chromatographic logP in series [1] (setting [4]) and in series [1] (setting [5]) were 2.26 and 2.33, respectively.

Turning to `Cc1ccc(Nc2ccc3nc(-c4cccnc4)sc3n2)cc1[S+]([O-])CC(F)(F)F` (stereo not shown) [Example 42], the chromatographic logP in series [1] (setting [4]) came out at 2.75; in series [1] (setting [5]), 2.77.
